Measurements published in US12390467B2, “Necroptosis inducers or autophagy inhibitors or a combination thereof” (The University of Toledo, priority 2018, dated 2025).

Columns and labels:
Format in all cases: cell-based
[1] = system: TRAIL, DR5, TRADD, RIP3, TNF-α, TNFR1, FADD, Fas in BT-20 TNBC cells; experiment: Western blot, TRAIL and TNF pathway proteins
Protocol: The TNBC cells were seeded in a culture flask and incubated for 24 h. The cells were then incubated with different concentrations of the lead compounds and re-incubated for an additional 12 or 24 h. […] The bicinchoninic acid (BCA) was used to determine protein concentration in the cell extracts (G-BIOSCIENCES, St. Louis, MO, USA). […] The membrane was blocked using 5% milk in Tris-buffered Tween 20 saline for 30 minutes. The membrane was then incubated overnight with primary antibodies against Bak, Bax, Bcl-2, caspase9, caspase 3, caspase 7, PARP, cytochrome c, N-cadherin, E-cadherin, c-Myc, dishevelled segment polarity protein 3 (DVL3), dishevelled segment polarity protein 2 (DVL2), Vimentin, mitogen-activated protein kinase kinase (MAPKK also known as MEK1/2), β-catenin, low-density lipoprotein receptor-related protein 6 (LRP6), receptor-interacting protein kinase (RIP), phosphorylated RIP (p-RIP), mixed lineage kinase domain like pseudokinase(MLKL), Caspase 8, light chain 3 (LC3), lysosomal-associated membrane protein 1 (LAMP1), unc-51 like autophagy activating kinase 1 (ULK1), ras associated protein 7 (Rab7), ras associated protein 5 (Rab5), Beclin 1, mechanistic target of rapamycin (mTOR), tumor necrosis factor alpha (TNF-α), tumor necrosis factor receptor 1 (TNFR1), tumor necrosis factor receptor 2 (TNFR2), Fas-associated protein with death domain (FADD), Fas ligand (Fas), TNF-related apoptosis-inducing ligand (TRAIL), death receptor 5 (DR5), Tumor necrosis factor receptor type 1-associated DEATH domain (TRADD), receptor-interacting protein kinase 3 (RIP3), β-actin or GAPDH in 1:1000 dilution in 5% milk or 5% BSA at 4° C. […] A ChemiDoc™ MP System imaging system from Bio-Rad (Hercules, CA, USA) was used for blots reading. Blots were used to obtain the protein bands, followed by quantification of the bands using image J software (NIH, Bethesda, MD, USA). All of the data were expressed as the ratio of β-actin or GAPDH.

[2] = system: EMT and Wnt/β-catenin signaling proteins in BT-20 cells; experiment: Western blot, EMT and Wnt/β-catenin proteins, BT-20
Protocol: (§1) The TNBC cells were seeded in a culture flask and incubated for 24 h. The cells were then incubated with different concentrations of the lead compounds and re-incubated for an additional 12 or 24 h. […] The bicinchoninic acid (BCA) was used to determine protein concentration in the cell extracts (G-BIOSCIENCES, St. Louis, MO, USA). […] The membrane was blocked using 5% milk in Tris-buffered Tween 20 saline for 30 minutes. The membrane was then incubated overnight with primary antibodies against Bak, Bax, Bcl-2, caspase9, caspase 3, caspase 7, PARP, cytochrome c, N-cadherin, E-cadherin, c-Myc, dishevelled segment polarity protein 3 (DVL3), dishevelled segment polarity protein 2 (DVL2), Vimentin, mitogen-activated protein kinase kinase (MAPKK also known as MEK1/2), β-catenin, low-density lipoprotein receptor-related protein 6 (LRP6), receptor-interacting protein kinase (RIP), phosphorylated RIP (p-RIP), mixed lineage kinase domain like pseudokinase(MLKL), Caspase 8, light chain 3 (LC3), lysosomal-associated membrane protein 1 (LAMP1), unc-51 like autophagy activating kinase 1 (ULK1), ras associated protein 7 (Rab7), ras associated protein 5 (Rab5), Beclin 1, mechanistic target of rapamycin (mTOR), tumor necrosis factor alpha (TNF-α), tumor necrosis factor receptor 1 (TNFR1), tumor necrosis factor receptor 2 (TNFR2), Fas-associated protein with death domain (FADD), Fas ligand (Fas), TNF-related apoptosis-inducing ligand (TRAIL), death receptor 5 (DR5), Tumor necrosis factor receptor type 1-associated DEATH domain (TRADD), receptor-interacting protein kinase 3 (RIP3), β-actin or GAPDH in 1:1000 dilution in 5% milk or 5% BSA at 4° C. Horseradish peroxidase-labeled (HRP) anti-rabbit or anti-mouse secondary antibodies (1:5,000 dilution) were added and incubated the next day for an additional 1 h. A ChemiDoc™ MP System imaging system from Bio-Rad (Hercules, CA, USA) was used for blots reading. Blots were used to obtain the protein bands, followed by quantification of the bands using image J software (NIH, Bethesda, MD, USA). All of the data were expressed as the ratio of β-actin or GAPDH.

TNBC cell lines = experiment: Cytotoxicity screening (MTT), TNBC cell lines overall; details: TNBC cell lines overall
Source text: To this end, several commercial databases were searched, and 17 similar molecules from the VitasM database were retrieved with considerable structural diversity in terms of the substitution on the aryl ring A attached to the thienopyrimidine scaffold and aryl ring B attached to hydrazino moiety. Further, the biological evaluation of the 17 molecules sheds light on the structural features deemed important for the selective cytotoxicity shown by this class of molecules. With this understanding, the 17 molecules were subjected to a screening protocol comprising of two TNBC, two non-TNBC, and one normal cell lines.
(§2) The following cancer and non-cancer cell lines were used in the initial cytotoxicity screening of the TPH104 compounds: triple negative breast cancer (TNBC): MDA-MB468, MDA-MB 231, and BT-20; non-TNBC: MCF-7 and ZR-75-1; ovarian: Ov2008; prostate: DU145; colon: HCT-116, S1, and LOVO; lung: H460; normal kidney: HEK-293; normal breast: HMEC; and normal colon: CRL-1459. All cells were cultured in Dulbecco's modified Eagle medium (DMEM), supplemented with 10% fetal bovine serum (FBS), and 1% penicillin/streptomycin (P/S). Cells were allowed to grow as adherent monolayers in T25 flasks in a humidified incubator with 5% CO2 at 37° C. for a period of 24 h, unless otherwise specified for certain experiments.
(§3) The MTT assay was used to determine the cytotoxicity of all of the compounds. Briefly, in a 96-well flat-bottom cell culture plate, the cells were seeded at a density between 3-5×10^3 cells/well (180 μl in each well) and incubated for 24 h (a hemocytometer was used for cell counting). The next day, the cells were incubated with different concentrations of the nine compounds (0, 0.1, 0.3, 1, 3, 10, 30, and 100 μM) for 72 h. After 72 h, 20 μl of 5 mg/ml of 3-(4,5-dimethylthiazol-2-yl)-2,5-diphenyltetrazolium bromide (MTT) was added to the plate and incubated with the cells for 3 h at 37° C. In this experiment, the living cells will reduce the soluble MTT dye to non-soluble purple formazan crystals. Following incubation, the media containing MTT removed via suction and 100 μL of 100% dimethyl sulfoxide (DMSO) was added to dissolve the formazan crystals. Subsequently, the plate was shaken for 2 minutes and the absorbance was measured at a wavelength of 570 nm using a SpectraMax iD3 Multi-Mode Microplate Reader (Molecular Devices, Sunnyvale, CA). The IC50 values of each compound were calculated and used to determine the selectivity ratio (IC50 in normal cells/IC50 in cancer cells) of each compound as previously described. Based on the results obtained from these experiments, the compound TPH104, which had the lowest IC50 value, was selected for further experiments.

[3] = system: MDA-MB231 (TNBC cell line); experiment: MTT cell viability assay, MDA-MB231; details: Homo sapiens, MDA-MB-231, 72 h, read-out: IC50 ± SD, MDA-MB231
Protocol: as §2, §3

β-catenin in MDA-MB468 = experiment: Western blot, β-catenin, MDA-MB468
Protocol: The TNBC cells were seeded in a culture flask and incubated for 24 h. The cells were then incubated with different concentrations of the lead compounds and re-incubated for an additional 12 or 24 h. […] The bicinchoninic acid (BCA) was used to determine protein concentration in the cell extracts (G-BIOSCIENCES, St. Louis, MO, USA). […] The membrane was blocked using 5% milk in Tris-buffered Tween 20 saline for 30 minutes. […] A ChemiDoc™ MP System imaging system from Bio-Rad (Hercules, CA, USA) was used for blots reading. Blots were used to obtain the protein bands, followed by quantification of the bands using image J software (NIH, Bethesda, MD, USA). All of the data were expressed as the ratio of β-actin or GAPDH.

[4] = system: LC3B-I, LC3B-II, LAMP1, Beclin-1, mTOR, ULK1, Rab7, Rab5 in BT-20 TNBC cells; experiment: Western blot, autophagy markers
Protocol: as §1

SMILES: COc1ccc(O)c(/C=N/Nc2ncnc3scc(-c4ccc(C)cc4)c23)c1 [TPH104]
- TNF-α ([1]; 0.5, 1, 2, and 5 μM): no significant change
- expression of TNFR1, FADD, and Fas ([1]; 0.5, 1, 2, and 5 μM): significantly inhibited
- TRAIL, its receptor (DRS), RIP3, and TRADD ([1]; 0.5, 1, 2, or 5 μM): significant increase
- expression levels of DVL3, DVL2, vimentin, and MEK1/2 ([2]; 2 μM and 5 μM): significantly decreased
- expression of N-cadherin ([2]; 2 μM and 5 μM): significantly decreased
- expression of c-Myc ([2]; 0.5, 1, 2, and 5 μM): significantly decreased
- expression of β-catenin or LRP6 ([2]; 0.5, 1, 2, and 5 μM): did not significantly alter
- expression of E-cadherin ([2]; 1, 2, or 5 μM): significantly increased
- IC50 (TNBC cell lines): < 1000 nM
- IC50 [3]: 190 nM
- expression of β-catenin (β-catenin in MDA-MB468): significantly decreased
- expression levels of ULK1, Rab5, and Rab7 ([4]; 0.5, 1, 2, or 5 μM): significantly reduced
- LC3B-I levels ([4]; 0.5, 1, 2, or 5, 12 h): significantly increased
- LC3B-II ([4]; 0.5, 1, 2, or 5, 12 h): no significant increase
- expression of Beclin 1 ([4]; 1, 2, and 5 μM for 12 h): significantly decreased
- expression of mTOR ([4]; 1, 2, or 5 μM for 12 h): significantly increased
- expression levels of LAMP1 ([4]; 12 h): no significant change
